Source: US20130053430A1, “MODULATION OF CETP EXPRESSION” (Isis Pharmaceuticals, Inc., priority 2010, published 2013)
e = 2'-O-(2-methoxyethyl) (MOE); d = 2'-deoxy (DNA)

What was measured:
human CETP mRNA = test: Liver CETP mRNA in huCETP transgenic mice, normal chow (Example 5); type: in vivo; conditions: 50 mg/kg i.p. twice per week for 6 weeks, relative to PBS control
Protocol: Male huCETP transgenic mice were maintained on a 12-hour light/dark cycle and fed ad libitum normal Purina mouse chow. Animals were acclimated for at least 7 days in the research facility before initiation of the experiment. Antisense oligonucleotides (ASOs) were prepared in buffered saline (PBS) and sterilized by filtering through a 0.2 micron filter. Oligonucleotides were dissolved in 0.9% PBS for injection.
The mice were divided into five treatment groups. The first four groups received intraperitoneal injections of ISIS 349511, ISIS 349512, ISIS 349515, or ISIS 349517 at a dose of 50 mg/kg twice per week for 6 weeks. The fifth group received intraperitoneal injections of saline twice weekly for 6 weeks.
Twenty four hours after the final dose, the animals were sacrificed and liver tissue was isolated. Liver RNA was isolated for real-time PCR analysis of CETP. Two primer probe sets, hCETP (forward sequence […], designated herein as SEQ ID NO: 118; reverse sequence […], designated herein as SEQ ID NO: 119; probe sequence TGCGGACCGATGCCCCTGAX, designated herein as SEQ ID NO: 120) and hCETP2_LTS00182 (forward sequence […], designated herein as SEQ ID NO: 38; reverse sequence GGCTCACGCCTTTGCTGTT, designated herein as SEQ ID NO: 39: probe sequence CGGCTCGAGGTAGTGTTTACAGCCCTCX, designated herein as SEQ ID NO: 40), were used. These primer probe sets target the CETP mRNA transcript at different regions. As presented in Table 7, treatment with antisense oligonucleotides reduced CETP mRNA expression. The primer probe sets were used individually and collectively to measure CETP mRNA expression and gave similar results in all three cases. The RNA expression levels were normalized to murine Cyclophilin, a house-keeping gene, which is constitutively expressed. Cyclophilin levels were measured using the primer probe set described in Table 2. The results are expressed as percent inhibition of CETP mRNA, relative to the PBS control.

[1] = Plasma cholesterol and triglyceride levels, dose response (Example 9); type: in vivo, mice
Protocol: (§1) Another group received subcutaneous injections of control oligonucleotide ISIS 141923 at a dose of 50 mg/kg/week for 6 weeks. One group of mice received subcutaneous injections of PBS for 6 weeks. The PBS-injected group served as the control group to which treatment groups were compared.
G. and Dyer, W. J. Can. J. Biochem. Physiol. 37: 911-917, 1959) and measured with an Olympus clinical analyzer (Hitachi Olympus AU400e, Melville, N.Y.). HDL and LDL cholesterol were individually measured by HPLC. Triglyceride levels were measured with the use of a commercially available triglyceride kit (DCL Triglyceride Reagent; Diagnostic Chemicals Ltd.). The results are presented in Tables 47-51 and are expressed in mg/dL.

ApoA1 = test: Liver ApoA1 mRNA expression (Example 9); type: in vivo, mice; conditions: s.c. 6 weeks; for Percent inhibition of liver mRNA expression, ApoA1: percentage increase or decrease compared to PBS control
Protocol: as §1
Liver RNA was isolated for real-time PCR analysis of ABCA1, ApoAI, and SR-B1. ATP-binding cassette transporter ABCA1 (member 1 of human transporter sub-family ABCA), also known as the cholesterol efflux regulatory protein (CERP) is a protein which in humans is encoded by the ABCA1 gene (Luciani, M. F. et al., Genomics. 1994. 21: 150-9). This transporter is a major regulator of cellular cholesterol and phospholipid homeostasis. Apolipoprotein A-I is a protein that in humans is encoded by the APOA1 gene (Breslow, J. L. et al., Proc. Natl. Acad. Sci. USA 1982. 79: 6861-5). Apolipoprotein A-I is the major protein component of HDL in plasma. The protein promotes cholesterol efflux from tissues to the liver for excretion. Scavenger receptor class B, type I (SR-BI) is an integral membrane protein found in numerous cell types/tissues, including the liver and adrenal (Acton, S. L. et al., J. Biol. Chem. 1994. 269: 21003-21009). It is best known for its role in facilitating the uptake of cholesteryl esters from high-density lipoproteins in the liver. Therefore, all three genes have a role in HDL regulation.
The primer probe set RTS1204 (forward sequence […], designated herein as SEQ ID NO: 122, reverse sequence […], designated herein as SEQ ID NO: 123, probe sequence AGGCCCAGACCTGTAAAGGCGAAGX, with X a fluorophore, designated herein as SEQ ID NO: 124) was used to measure abca1 levels. The primer probe set RTS14737 (forward sequence […], designated herein as SEQ ID NO: 125, reverse sequence […], designated herein as SEQ ID NO: 126, probe sequence CTGCAGGAACGGCTGGGCCCX, with X a fluorophore, designated herein as SEQ ID NO: 127) was used to measure apoA1 levels. The primer probe set mSRB-1 (forward sequence […], designated herein as SEQ ID NO: 128, reverse sequence ATGCGACTTGTCAGGCTGG, designated herein as SEQ ID NO: 129, probe sequence CGTGGAGAACCGCAGCCTCCATTX, with X a fluorophore, designated herein as SEQ ID NO: 130) was used to measure sr-b1 levels. The results are presented in Table 44 as percentage increase or decrease in the respective expression levels compared to the PBS control. Both primer probe sets produced similar results. The RNA expression levels were normalized to murine Cyclophilin. Treatment with ISIS 349517 caused an increase in ApoA1 and SR-B1 levels.

ISIS 349511: 5-10-5 MOE gapmer CCCGACCTCCTTGGAGACTT (sugars from the 5' end e5 d10 e5, backbone and methylation of C not given here)
Percent inhibition of liver CETP mRNA expression, Combined primer probe sets (human CETP mRNA): 88% | Percent inhibition of liver CETP mRNA expression, Primer probe set hCETP (human CETP mRNA): 90% | Percent inhibition of liver CETP mRNA expression, Primer probe set hCETP2_LTS00182 (human CETP mRNA): 86%

ISIS 349517: 5-10-5 MOE gapmer CAGCACTTTAATGCCAGTGG (sugars from the 5' end e5 d10 e5, backbone and methylation of C not given here)
HDL cholesterol levels ([1]; 1.5 mg/kg/wk, Week 0): 80 mg/dL | LDL cholesterol levels ([1]; 1.5 mg/kg/wk, Week 0): 58 mg/dL | Total cholesterol levels ([1]; 1.5 mg/kg/wk, Week 0): 154 mg/dL | Triglyceride levels ([1]; 1.5 mg/kg/wk, Week 0): 63 mg/dL | % change in HDL levels compared to total cholesterol ([1]; 1.5 mg/kg/wk, Week 3): 12% | HDL cholesterol levels ([1]; 1.5 mg/kg/wk, Week 3): 117 mg/dL | LDL cholesterol levels ([1]; 1.5 mg/kg/wk, Week 3): 35 mg/dL | Total cholesterol levels ([1]; 1.5 mg/kg/wk, Week 3): 171 mg/dL | Triglyceride levels ([1]; 1.5 mg/kg/wk, Week 3): 50 mg/dL | % change in HDL levels compared to total cholesterol ([1]; 1.5 mg/kg/wk, Week 6): 24% | HDL cholesterol levels ([1]; 1.5 mg/kg/wk, Week 6): 132 mg/dL | LDL cholesterol levels ([1]; 1.5 mg/kg/wk, Week 6): 38 mg/dL | Total cholesterol levels ([1]; 1.5 mg/kg/wk, Week 6): 180 mg/dL | Triglyceride levels ([1]; 1.5 mg/kg/wk, Week 6): 91 mg/dL | HDL cholesterol levels ([1]; 5 mg/kg/wk, Week 0): 88 mg/dL | LDL cholesterol levels ([1]; 5 mg/kg/wk, Week 0): 62 mg/dL | Total cholesterol levels ([1]; 5 mg/kg/wk, Week 0): 164 mg/dL | Triglyceride levels ([1]; 5 mg/kg/wk, Week 0): 57 mg/dL | % change in HDL levels compared to total cholesterol ([1]; 5 mg/kg/wk, Week 3): 11% | HDL cholesterol levels ([1]; 5 mg/kg/wk, Week 3): 130 mg/dL | LDL cholesterol levels ([1]; 5 mg/kg/wk, Week 3): 31 mg/dL | Total cholesterol levels ([1]; 5 mg/kg/wk, Week 3): 172 mg/dL | Triglyceride levels ([1]; 5 mg/kg/wk, Week 3): 51 mg/dL | % change in HDL levels compared to total cholesterol ([1]; 5 mg/kg/wk, Week 6): 23% | HDL cholesterol levels ([1]; 5 mg/kg/wk, Week 6): 151 mg/dL | LDL cholesterol levels ([1]; 5 mg/kg/wk, Week 6): 36 mg/dL | Total cholesterol levels ([1]; 5 mg/kg/wk, Week 6): 202 mg/dL | Triglyceride levels ([1]; 5 mg/kg/wk, Week 6): 85 mg/dL | HDL cholesterol levels ([1]; 15 mg/kg/wk, Week 0): 86 mg/dL | LDL cholesterol levels ([1]; 15 mg/kg/wk, Week 0): 54 mg/dL | Total cholesterol levels ([1]; 15 mg/kg/wk, Week 0): 152 mg/dL | Triglyceride levels ([1]; 15 mg/kg/wk, Week 0): 47 mg/dL | % change in HDL levels compared to total cholesterol ([1]; 15 mg/kg/wk, Week 3): 26% | HDL cholesterol levels ([1]; 15 mg/kg/wk, Week 3): 141 mg/dL | LDL cholesterol levels ([1]; 15 mg/kg/wk, Week 3): 32 mg/dL | Total cholesterol levels ([1]; 15 mg/kg/wk, Week 3): 185 mg/dL | Triglyceride levels ([1]; 15 mg/kg/wk, Week 3): 48 mg/dL | % change in HDL levels compared to total cholesterol ([1]; 15 mg/kg/wk, Week 6): 42% | HDL cholesterol levels ([1]; 15 mg/kg/wk, Week 6): 164 mg/dL | LDL cholesterol levels ([1]; 15 mg/kg/wk, Week 6): 40 mg/dL | Total cholesterol levels ([1]; 15 mg/kg/wk, Week 6): 217 mg/dL | Triglyceride levels ([1]; 15 mg/kg/wk, Week 6): 85 mg/dL | HDL cholesterol levels ([1]; 50 mg/kg/wk, Week 0): 77 mg/dL | LDL cholesterol levels ([1]; 50 mg/kg/wk, Week 0): 59 mg/dL | Total cholesterol levels ([1]; 50 mg/kg/wk, Week 0): 145 mg/dL | Triglyceride levels ([1]; 50 mg/kg/wk, Week 0): 41 mg/dL | % change in HDL levels compared to total cholesterol ([1]; 50 mg/kg/wk, Week 3): 43% | HDL cholesterol levels ([1]; 50 mg/kg/wk, Week 3): 139 mg/dL | LDL cholesterol levels ([1]; 50 mg/kg/wk, Week 3): 33 mg/dL | Total cholesterol levels ([1]; 50 mg/kg/wk, Week 3): 184 mg/dL | Triglyceride levels ([1]; 50 mg/kg/wk, Week 3): 49 mg/dL | % change in HDL levels compared to total cholesterol ([1]; 50 mg/kg/wk, Week 6): 37% | HDL cholesterol levels ([1]; 50 mg/kg/wk, Week 6): 123 mg/dL | LDL cholesterol levels ([1]; 50 mg/kg/wk, Week 6): 38 mg/dL | Total cholesterol levels ([1]; 50 mg/kg/wk, Week 6): 170 mg/dL | Triglyceride levels ([1]; 50 mg/kg/wk, Week 6): 60 mg/dL | Percent inhibition of liver CETP mRNA expression, Combined primer probe sets (human CETP mRNA): 97% | Percent inhibition of liver CETP mRNA expression, Primer probe set hCETP (human CETP mRNA): 99% | Percent inhibition of liver CETP mRNA expression, Primer probe set hCETP2_LTS00182 (human CETP mRNA): 95% | ApoA1 levels (liver mRNA) (ApoA1; huCETP transgenic mice, Western diet): increase | Percent inhibition of liver mRNA expression, ApoA1 (ApoA1; Dose 1.5 mg/kg/wk): −34% | Percent inhibition of liver mRNA expression, ApoA1 (ApoA1; Dose 5 mg/kg/wk): −13% | Percent inhibition of liver mRNA expression, ApoA1 (ApoA1; Dose 15 mg/kg/wk): +52% | Percent inhibition of liver mRNA expression, ApoA1 (ApoA1; Dose 50 mg/kg/wk): +136%
